Experimental data reported in PMC7565988, “Insight into the Anticancer Activity of Copper(II) 5-Methylenetrimethylammonium-Thiosemicarbazonates and Their Interaction with Organic Cation Transporters” (Biomolecules, 2020).
Read-outs that look alike come from different tables or passages of the source.

Experiments:
[1] = Redox reaction of copper(II) complexes with GSH, anaerobic UV/Vis kinetics; type: physicochemical; details: copper(II) complex (1–4) of the proligand, pH = 7.4, ccomplex = 25 μM, cGSH = 1.25 mM
Experimental: The redox reactions of the copper(II) complexes with GSH and AA were studied at 25.0 ± 0.1 °C on Hewlett Packard 8452A diode array spectrophotometer using a special, tightly closed tandem cuvette (Hellma Tandem Cell, 238-QS). The reactants were separated until the reaction was triggered. Both isolated pockets of the cuvette were completely deoxygenated by bubbling a stream of argon for 10–15 min before mixing the reactants. Spectra were recorded before and then immediately after the mixing, and changes were followed until no further absorbance change was observed. One of the isolated pockets contained the reducing agent and its concentration was 1250 μM and the other contained 25 μM copper(II) complex. The pH of all the solutions was adjusted to 7.40 by 50 mM HEPES buffer and an ionic strength of 0.1 M (KCl) was applied. The stock solutions of the reducing agents and the complexes were freshly prepared every day. During the calculations, the absorbance (A) − time (t) curves were fitted and analysed at the λmax of the complex. (A0 − Afinal) × e^(−a×t) + Afinal equation was used where A0, Afinal and a parameters were refined and accepted at the minimal value of the weighted sum of squared residuals (difference between the measured and calculated absorbance values) at the given wavelength. Then observed rate constants (kobs) of the redox reaction were obtained from the data points of the simulated absorbance–time curves as the slope of the ln(A/A0) versus t plots.

[2] = tested on: Colo 320 multidrug resistant colonic adenocarcinoma cells (overexpressing ABCB1 (MDR1)-LRP); experiment: MTT cytotoxicity (24 h) / antiproliferation (72 h) assay; type: cell-based; details: Homo sapiens, read-out: Colo320 IC50
Experimental: Human doxorubicin-sensitive Colo 205 (ATCC-CCL-222) and multidrug resistant Colo 320 (overexpressing ABCB1 (MDR1)-LRP (ATCC-CCL-220.1)) colonic adenocarcinoma cell lines were purchased from LGC Promochem, Teddington, UK. The cells were cultured in RPMI 1640 medium supplemented with 10% heat-inactivated fetal bovine serum, 2 mM L-glutamine, 1 mM Na-pyruvate and 100 mM Hepes. The cell lines were incubated at 37 °C, in a 5% CO2, 95% air atmosphere. The semi-adherent human colon cancer cells were detached with Trypsin-Versene (EDTA) solution for 5 min at 37 °C.
(§1) In the study non-cancerous human embryonic lung fibroblast MRC-5, human colonic adenocarcinoma cell line (doxorubicin-sensitive Colo 205, multidrug resistant Colo 320) and neuroblastoma cell line SH-SY5Y were used to determine the effect of compounds on cell growth. The effects of increasing concentrations of compounds on cell growth were tested in 96-well flat-bottomed microtiter plates. The compounds were diluted in a volume of 100 μL of medium.
In case of the colonic adenocarcinoma cells, the two-fold serial dilutions of compounds were prepared in 100 μL of RPMI 1640, horizontally. The semi-adherent colonic adenocarcinoma cells were treated with Trypsin–Versene (EDTA) solution. The cells were adjusted to a density of 2 × 10^4 cells in 100 μL of RPMI 1640 medium, and were added to each well, with the exception of the medium control wells. The final volume of the wells containing compounds and cells was 200 μL.
(§2) The culture plates were incubated at 37 °C for 24 h; at the end of the incubation period, 20 μL of MTT (thiazolyl blue tetrazolium bromide, Sigma) solution (from a stock solution of 5 mg/mL) were added to each well. After incubation at 37 °C for 4 h, 100 μL of sodium dodecyl sulfate (SDS) (Sigma) solution (10% in 0.01 M HCI) were added to each well and the plates were further incubated at 37 °C overnight. Cell growth was determined by measuring the optical density (OD) at 540/630 nm with Multiscan EX ELISA reader (Thermo Labsystems, Cheshire, WA, USA). […] Curves were fitted by GraphPad Prism software using the sigmoidal dose-response model (comparing variable and fixed slopes).
(§3) The method is similar to the one described in the assay for cytotoxic effect. […] The culture plates were incubated at 37 °C for 72 h and after the incubation time, the plates were stained with MTT according to the previous experimental protocol described for the cytotoxicity assay.

[3] = tested on: SH-SY5Y neuroblastoma cells; experiment: as above; type: cell-based, human; details: SH-SY5Y; for IC50: Homo sapiens, MTT; for enhancement of cytotoxicity by chelation to copper(II), factor: proligand vs its copper(II) complex
Experimental: SH-SY5Y (ATCC® CRL-2266™) neuroblastoma cell line was purchased from LGC Promochem, Teddington, UK. The cell line was cultured in Eagle’s Minimal Essential Medium (EMEM, containing 4.5 g/L glucose) supplemented with a non-essential amino acid mixture, a selection of vitamins and 10% heat-inactivated foetal bovine serum. The cell line was incubated at 37 °C, in a 5% CO2, 95% air atmosphere.
as §1
(§4) The adherent human embryonal lung fibroblast and SH-SY5Y neuroblastoma cells were cultured in 96-well flat-bottomed microtiter plates, using EMEM supplemented with 10% heat-inactivated foetal bovine serum. The density of the cells was adjusted to 2 × 10^4 cells in 100 μL per well, the cells were seeded for 24 h at 37 °C, 5% CO2, then the medium was removed from the plates containing the cells, and the dilutions of compounds previously made in a separate plate were added to the cells in 200 μL.
as §2, §3

[4] = as above; type: cell-based; details: human, MRC-5 embryonal lung fibroblast cells (non-cancerous); for IC50 at 24 h: 24 h exposure; for IC50 at 72 h: 72 h exposure
Experimental: MRC-5 human embryonal lung fibroblast cell line (ATCC CCL-171) was purchased from LGC Promochem, Teddington, UK. The cell line was cultured in Eagle’s Minimal Essential Medium (EMEM, containing 4.5 g/L glucose) supplemented with a non-essential amino acid mixture, a selection of vitamins and 10% heat-inactivated foetal bovine serum. The cell line was incubated at 37 °C, in a 5% CO2, 95% air atmosphere.
as §1, §4, §2, §3

Row | SMILES | kobs, observed rate constant of the redox reaction with GSH [1] | IC50 ([2]; 24 h exposure) | IC50 ([2]; 72 h exposure) | IC50 ([3]; 24 h exposure) | IC50 ([3]; 72 h exposure) | enhancement of cytotoxicity by chelation to copper(II), factor [3] | IC50 at 24 h [4] | IC50 at 72 h [4]
1 | C[N+](C)(C)Cc1ccc(O)c(/C=N/NC(N)=S)c1 [[H2L^H]Cl] | 0.080 ± 0.008 min⁻¹ | > 100 µM | 88.8 ± 5.32 µM | > 100 µM | > 100 µM | ca. 2 | > 100 µM | > 100 µM
2 | CCNC(=S)N/N=C/c1cc(C[N+](C)(C)C)ccc1O [[H2L^Et]Cl] | 0.058 ± 0.001 min⁻¹ | 63.8 ± 3.92 µM | 53.3 ± 2.44 µM | 88.1 ± 9.19 µM | 49.9 ± 3.97 µM | – | > 100 µM | > 100 µM
3 | C[N+](C)(C)Cc1ccc(O)c(/C=N/NC(=S)Nc2ccccc2)c1 [[H2L^Ph]Cl] | 0.025 ± 0.005 min⁻¹ | > 100 µM | 95.8 ± 1.58 µM | > 100 µM | 31.5 ± 2.66 µM | – | > 100 µM | > 100 µM
4 | CNC(=S)N/N=C/c1cc(C[N+](C)(C)C)ccc1O [[H2L^Me]Cl] | 0.073 ± 0.002 min⁻¹ | > 100 µM | 74.4 ± 3.85 µM | > 100 µM | > 100 µM | ca. 7 | > 100 µM | > 100 µM
